Among the data in patent US12227501B2, “3-amino-2-[2-(acylamino)pyridin-4-yl]-1,5,6,7-tetrahydro-4h-pyrrolo[3,2-c]pyridin-4-one as CSNK1 inhibitors” (Bayer Aktiengesellschaft, priority 2019, dated 2025) are IC50 values, retold here.

Holding throughout (format): biochemical
Assay [1] deals with T1, human CSNK1A1 (Homo sapiens (Human), UniProt P48729). The experiment in a line: CSNK1A1 Assay 2 (ADP-Glo, 1 μM ATP). The settings on record: substrate biotin-Ahx-KRRRAL-pS-VASLPGL, read-out: CSNK1A1 Assay 2 IC50 [mol/l] (median). The gist of the method:
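Full-length human CSNK1A1 as an N-terminal GST fusion (baculovirus/insect cells) with biotinylated peptide substrate biotin-Ahx-KRRRAL-pS-VASLPGL and 1 μM ATP, in HEPES pH 7.5 buffer. Compounds were pre-incubated with enzyme (~0.0375 ng/μL) for 15 min at 22 °C. Generated ADP was read by ADP-Glo luminescence as the activity measure.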
(In general: ADP-Glo turns the ADP formed in a reaction into a luminescent signal.)

Assay [2] concerns the target T1, human CSNK1A1. The experiment in a line: CSNK1A1 High ATP Assay (ADP-Glo, 1 mM ATP). The settings on record: read-out: CSNK1A1 high ATP assay IC50 [mol/l] (median). Put shortly:
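GST-tagged full-length human CSNK1A1 from baculovirus-infected insect cells (typically about 0.4 ng/μL), pre-incubated with compound 15 min at 22 °C. Reaction with biotinylated peptide biotin-Ahx-KRRRAL-pS-VASLPGL at 1 mM ATP. ADP formed read by ADP-Glo luminescence.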

The target in another assay is human CSNK1D (Homo sapiens (Human), UniProt P48730). Nature of the assay: CSNK1D Assay (ADP-Glo, 1 μM ATP). The settings on record: read-out: CSNK1D IC50 [mol/l] (median). Put shortly:
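GST-tagged full-length human CSNK1D from baculovirus-infected insect cells, typically ~0.5 ng/μL, with biotinylated peptide substrate and 1 μM ATP in HEPES pH 7.5 buffer. Compound is preincubated with enzyme 15 min at 22 °C. ADP formed is quantified by ADP-Glo luminescence.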

The target in assay [3] is wild-type Epidermal Growth Factor Receptor (EGFR) (Homo sapiens (Human), UniProt P00533). Nature of the assay: WT-EGFR Kinase Assay (TR-FRET, 2 mM ATP). Background: TR-FRET usually uses a lanthanide donor and a delayed reading to cut background.
wild-type Epidermal Growth Factor Receptor (EGFR), sequence (P00533 669-1210): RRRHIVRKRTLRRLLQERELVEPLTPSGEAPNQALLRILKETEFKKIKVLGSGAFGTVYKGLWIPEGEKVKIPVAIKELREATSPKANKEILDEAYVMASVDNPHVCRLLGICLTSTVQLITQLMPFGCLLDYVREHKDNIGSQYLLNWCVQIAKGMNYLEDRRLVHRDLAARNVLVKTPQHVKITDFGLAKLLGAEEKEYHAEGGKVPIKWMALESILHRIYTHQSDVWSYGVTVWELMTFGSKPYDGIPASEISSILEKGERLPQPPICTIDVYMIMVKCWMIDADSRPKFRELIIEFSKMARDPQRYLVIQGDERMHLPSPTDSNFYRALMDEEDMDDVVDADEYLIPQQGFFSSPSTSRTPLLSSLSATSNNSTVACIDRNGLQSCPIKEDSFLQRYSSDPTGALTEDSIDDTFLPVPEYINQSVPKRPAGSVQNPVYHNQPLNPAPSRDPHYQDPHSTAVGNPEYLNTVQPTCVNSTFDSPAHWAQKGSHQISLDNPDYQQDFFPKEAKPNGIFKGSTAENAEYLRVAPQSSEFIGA
Where [4] appears, read: read-out: EGFR Wildtyp- 2 mM ATP IC50 [mol/l] (median).
Setting [5] is: EGFR Wildtyp- 2 mM ATP IC50 [mol/l] (median).

Where “and” joins values, the source holds several entries; their conditions need not be identical. Identical values can stand only once. Like-named read-outs stand apart in the source and are kept apart here. Where only a bound is given, the exact number is not on record here.

T1 sequence (P48729 whole entry, the tested form may be a part): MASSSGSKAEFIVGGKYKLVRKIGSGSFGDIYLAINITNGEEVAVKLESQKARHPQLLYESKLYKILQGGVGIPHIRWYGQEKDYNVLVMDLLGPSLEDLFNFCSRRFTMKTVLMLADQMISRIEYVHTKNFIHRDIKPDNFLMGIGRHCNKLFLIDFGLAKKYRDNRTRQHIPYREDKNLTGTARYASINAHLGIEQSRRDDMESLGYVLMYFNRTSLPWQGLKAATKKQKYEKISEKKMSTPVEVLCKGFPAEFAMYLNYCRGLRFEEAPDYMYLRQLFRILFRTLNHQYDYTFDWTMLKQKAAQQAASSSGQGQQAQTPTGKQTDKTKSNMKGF
human CSNK1D, sequence (P48730 whole entry): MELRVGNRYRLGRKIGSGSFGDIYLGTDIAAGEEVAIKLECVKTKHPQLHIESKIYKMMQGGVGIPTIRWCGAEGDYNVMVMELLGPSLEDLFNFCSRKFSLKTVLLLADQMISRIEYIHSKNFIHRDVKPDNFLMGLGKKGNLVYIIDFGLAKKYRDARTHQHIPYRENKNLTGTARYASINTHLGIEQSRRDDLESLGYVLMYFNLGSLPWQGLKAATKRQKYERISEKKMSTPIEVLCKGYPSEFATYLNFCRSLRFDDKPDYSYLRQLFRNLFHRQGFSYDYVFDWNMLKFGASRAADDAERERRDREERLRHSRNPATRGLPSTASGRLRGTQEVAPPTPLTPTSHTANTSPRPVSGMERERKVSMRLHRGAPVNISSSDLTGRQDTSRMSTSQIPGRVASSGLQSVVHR

`CC1(C)Cc2[nH]c(-c3ccnc(NC(=O)C(CC(F)F)c4ccc(F)cc4)c3)c(Nc3cccc(F)n3)c2C(=O)N1` (single isomer, unassigned; enantiomer 2) [Example 130, 4,4-difluoro-2-(4-fluorophenyl)-N-(4-{3-[(6-fluoropyridin-2-yl)amino]-6,6-dimethyl-4-oxo-4,5,6,7-tetrahydro-1H-pyrrolo[3,2-c]pyridin-2-yl}pyridin-2-yl)butanamide (Enantiomer 2)]: the IC50 at human CSNK1A1 [1] was 26.7 nM; at human CSNK1A1 [2], 1340 nM; at human CSNK1D, 71.6 nM; in assay [3] (setting [4]), over 20 µM.

`Cc1ccccc1Nc1c(-c2ccnc(NC(=O)C(C)c3ccc(F)cc3)c2)[nH]c2c1C(=O)NC(C)(C)C2` (single isomer, unassigned; enantiomer 2) [Example 134, N-{4-[6,6-dimethyl-3-(2-methylanilino)-4-oxo-4,5,6,7-tetrahydro-1H-pyrrolo[3,2-c]pyridin-2-yl]pyridin-2-yl}-2-(4-fluorophenyl)propanamide (Enantiomer 2)]: the IC50 on human CSNK1A1 [1] was 19.1 nM; at human CSNK1A1 [2], 304 nM; at human CSNK1D it was 45.9 nM; in assay [3] (setting [5]) it was over 20 µM.

As for `Cc1ccccc1Nc1c(-c2ccnc(NC(=O)C(CC(F)F)c3ccc(F)cc3)c2)[nH]c2c1C(=O)NC(C)(C)C2` (single isomer, unassigned; enantiomer 2) [Example 137, N-{4-[6,6-dimethyl-3-(2-methylanilino)-4-oxo-4,5,6,7-tetrahydro-1H-pyrrolo[3,2-c]pyridin-2-yl]pyridin-2-yl}-4,4-difluoro-2-(4-fluorophenyl)butanamide (Enantiomer 2)], the IC50 on human CSNK1A1 [1] was 42.2 nM; on human CSNK1A1 [2] it was 451 nM; on human CSNK1D, 82.7 nM; in assay [3] (setting [4]), over 20 µM.

Turning to `CC1(C)Cc2[nH]c(-c3ccnc(NC(=O)C(CN)c4ccc(F)cc4)c3)c(Nc3ccccc3)c2C(=O)N1` (single isomer, unassigned; enantiomer 2) [Example 141, 3-amino-N-[4-(3-anilino-6,6-dimethyl-4-oxo-4,5,6,7-tetrahydro-1H-pyrrolo[3,2-c]pyridin-2-yl)pyridin-2-yl]-2-(4-fluorophenyl)propanamide (Enantiomer 2)], the IC50 at human CSNK1A1 [1] is 57.8 nM; at human CSNK1A1 [2], 599 nM; on human CSNK1D, 127 nM; in assay [3] (setting [4]), over 20 µM.

As for `Cc1ccccc1Nc1c(-c2ccnc(NC(=O)C(CC(F)F)c3ccc(F)cc3)c2)[nH]c2c1C(=O)NC1(CCC1)C2` (single isomer, unassigned; enantiomer 2) [Example 145, (+)-4,4-difluoro-2-(4-fluorophenyl)-N-{4-[3′-(2-methylanilino)-4′-oxo-1′,4′,5′,7′-tetrahydrospiro[cyclobutane-1,6′-pyrrolo[3,2-c]pyridin]-2′-yl]pyridin-2-yl}butanamide-(Enantiomer 2)], the IC50 at human CSNK1A1 [1] is 10.7 nM; on human CSNK1A1 [2] it was 14.8 nM; on human CSNK1D, 8.21 nM; in assay [3] (setting [4]) it was over 20 µM.

Consider `O=C1NC2(CC2)Cc2[nH]c(-c3ccnc(NC(=O)C(CC(F)F)c4ccc(F)cc4)c3)c(Nc3ccccc3)c21` (single isomer, unassigned; enantiomer 2) [Example 149, N-[4-(3′-anilino-4′-oxo-1′,4′,5′,7′-tetrahydrospiro[cyclopropane-1,6′-pyrrolo[3,2-c]pyridin]-2′-yl)pyridin-2-yl]-4,4-difluoro-2-(4-fluorophenyl)butanamide (Enantiomer 2)], for which the IC50 stood at 40.4 nM on human CSNK1A1 [1], 473 nM on human CSNK1A1 [2], 39.4 nM on human CSNK1D and 16.7 µM in assay [3] (setting [5]).

`CC(C(=O)Nc1cc(-c2[nH]c3c(c2Nc2ccccc2)C(=O)N(C)C2(CCC2)C3)ccn1)c1ccc(F)cc1` (single isomer, unassigned; enantiomer 2) [Example 159, (+)-N-[4-(3′-anilino-5′-methyl-4′-oxo-1′,4′,5′,7′-tetrahydrospiro[cyclobutane-1,6′-pyrrolo[3,2-c]pyridin]-2′-yl)pyridin-2-yl]-2-(4-fluorophenyl)propanamide (Enantiomer 2)]: the IC50 at human CSNK1A1 [1] was 90.3 nM; at human CSNK1A1 [2] it was 217 nM; at human CSNK1D it was 90.7 nM; in assay [3] (setting [4]), over 20 µM.

`CN1C(=O)c2c([nH]c(-c3ccnc(NC(=O)C(CC(F)F)c4ccc(F)cc4)c3)c2Nc2ccccc2)CC12CCC2` (single isomer, unassigned; enantiomer 2) [Example 162, (+)-N-[4-(3′-anilino-5′-methyl-4′-oxo-1′,4′,5′,7′-tetrahydrospiro[cyclobutane-1,6′-pyrrolo[3,2-c]pyridin]-2′-yl)pyridin-2-yl]-4,4-difluoro-2-(4-fluorophenyl)butanamide (Enantiomer 2)]: the IC50 on human CSNK1A1 [1] is 60.2 nM; on human CSNK1A1 [2] it was 61.4 nM; at human CSNK1D, 52.9 nM; in assay [3] (setting [4]), over 20 µM.

Take `O=C(Cc1ccc(F)cc1)Nc1cc(-c2[nH]c3c(c2Nc2ccccc2)C(=O)N(C2CC2)CC3)ccn1` [Example 7, N-[4-(3-anilino-5-cyclopropyl-4-oxo-4,5,6,7-tetrahydro-1H-pyrrolo[3,2-c]pyridin-2-yl)pyridin-2-yl]-2-(4-fluorophenyl)acetamide]: the IC50 amounted to 2.52 nM on human CSNK1A1 [1], 107 nM on human CSNK1A1 [2], 8.48 nM on human CSNK1D and 2.74 µM in assay [3] (setting [4]).

As to `CC(C(=O)Nc1cc(-c2[nH]c3c(c2Nc2ccccc2)C(=O)N(C2CC2)CC3)ccn1)c1ccc(F)cc1` (stereo not drawn) [Example 8, N-[4-(3-anilino-5-cyclopropyl-4-oxo-4,5,6,7-tetrahydro-1H-pyrrolo[3,2-c]pyridin-2-yl)pyridin-2-yl]-2-(4-fluorophenyl)propanamide], the IC50 was 15.4 nM on human CSNK1A1 [1], 1930 nM on human CSNK1A1 [2], 37.9 nM on human CSNK1D and over 20 µM in assay [3] (setting [4]).

On to `O=C(Cc1ccc(F)cc1)Nc1cc(-c2[nH]c3c(c2Nc2ccccc2Cl)C(=O)NCC3)ccn1` [Example 13, N-{4-[3-(2-chloroanilino)-4-oxo-4,5,6,7-tetrahydro-1H-pyrrolo[3,2-c]pyridin-2-yl]pyridin-2-yl}-2-(4-fluorophenyl)acetamide], for which the IC50 turned out to be 1.9 nM on human CSNK1A1 [1], 37 nM on human CSNK1A1 [2], 7.06 nM on human CSNK1D and 1.05 µM in assay [3] (setting [4]).

For `CC(C(=O)Nc1cc(-c2[nH]c3c(c2Nc2ccccc2Cl)C(=O)NCC3)ccn1)c1ccc(F)cc1` (stereo not drawn) [Example 14, N-{4-[3-(2-chloroanilino)-4-oxo-4,5,6,7-tetrahydro-1H-pyrrolo[3,2-c]pyridin-2-yl]pyridin-2-yl}-2-(4-fluorophenyl)propanamide], the IC50 on human CSNK1A1 [1] was 4.96 nM; on human CSNK1A1 [2], 73.9 nM; at human CSNK1D it was 14 nM; in assay [3] (setting [4]) it was over 20 µM.

For `CN1CCc2[nH]c(-c3ccnc(NC(=O)C(CO)c4ccc(F)cc4)c3)c(Nc3ccccc3)c2C1=O` (stereo not drawn) [Example 17, N-[4-(3-anilino-5-methyl-4-oxo-4,5,6,7-tetrahydro-1H-pyrrolo[3,2-c]pyridin-2-yl)pyridin-2-yl]-2-(4-fluorophenyl)-3-hydroxypropanamide], the IC50 at human CSNK1A1 [1] is 10.9 nM; at human CSNK1A1 [2], 66.5 nM; at human CSNK1D it was 39.3 nM; in assay [3] (setting [5]), 14.5 µM and 14.3 µM; in assay [3] (setting [4]), over 20 µM.

For `O=C(Cc1ccc(F)cc1)Nc1cc(-c2[nH]c3c(c2Nc2ccccc2)C(=O)N(CC2CC2)CC3)ccn1` [Example 20, N-{4-[3-anilino-5-(cyclopropylmethyl)-4-oxo-4,5,6,7-tetrahydro-1H-pyrrolo[3,2-c]pyridin-2-yl]pyridin-2-yl}-2-(4-fluorophenyl)acetamide], the IC50 was 9.72 nM at human CSNK1A1 [1]; 1660 nM on human CSNK1A1 [2]; 24.2 nM at human CSNK1D; 18.1 µM in assay [3] (setting [5]); over 20 µM in assay [3] (setting [4]).

`CCN1CCc2[nH]c(-c3ccnc(NC(=O)C(C)c4ccc(F)cc4)c3)c(Nc3ccccc3)c2C1=O` (stereo not drawn) [Example 21, N-[4-(3-anilino-5-ethyl-4-oxo-4,5,6,7-tetrahydro-1H-pyrrolo[3,2-c]pyridin-2-yl)pyridin-2-yl]-2-(4-fluorophenyl)propanamide]: the IC50 on human CSNK1A1 [1] is 7.67 nM; on human CSNK1A1 [2] it was 344 nM; at human CSNK1D it was 21.5 nM; in assay [3] (setting [4]) it was over 20 µM.

As to `CC(C)(O)CN1CCc2[nH]c(-c3ccnc(NC(=O)Cc4ccc(F)cc4)c3)c(Nc3ccccc3)c2C1=O` [Example 23, N-{4-[3-anilino-5-(2-hydroxy-2-methylpropyl)-4-oxo-4,5,6,7-tetrahydro-1H-pyrrolo[3,2-c]pyridin-2-yl]pyridin-2-yl}-2-(4-fluorophenyl)acetamide], the IC50 on human CSNK1A1 [1] was 26.7 nM; on human CSNK1A1 [2] it was 2620 nM; at human CSNK1D it was 36.8 nM; in assay [3] (setting [4]), 7.28 µM.
